Like-named read-outs stand apart in the source and are kept apart here.
Columns and labels:
Experiment in all cases: SelectScreen Kinase Profiling, single point inhibition and IC50 for off-target kinases
Format in all cases: biochemical
off-target kinases [1] = biological target: off-target kinases (Homo sapiens, UniProt P06493)
off-target kinases [2] = biological target: T1, off-target kinases (Homo sapiens, UniProt P41743); conditions: PRKCI (PKC iota), ZLYTE, ATP Km app
T1 sequence (P41743 1-596): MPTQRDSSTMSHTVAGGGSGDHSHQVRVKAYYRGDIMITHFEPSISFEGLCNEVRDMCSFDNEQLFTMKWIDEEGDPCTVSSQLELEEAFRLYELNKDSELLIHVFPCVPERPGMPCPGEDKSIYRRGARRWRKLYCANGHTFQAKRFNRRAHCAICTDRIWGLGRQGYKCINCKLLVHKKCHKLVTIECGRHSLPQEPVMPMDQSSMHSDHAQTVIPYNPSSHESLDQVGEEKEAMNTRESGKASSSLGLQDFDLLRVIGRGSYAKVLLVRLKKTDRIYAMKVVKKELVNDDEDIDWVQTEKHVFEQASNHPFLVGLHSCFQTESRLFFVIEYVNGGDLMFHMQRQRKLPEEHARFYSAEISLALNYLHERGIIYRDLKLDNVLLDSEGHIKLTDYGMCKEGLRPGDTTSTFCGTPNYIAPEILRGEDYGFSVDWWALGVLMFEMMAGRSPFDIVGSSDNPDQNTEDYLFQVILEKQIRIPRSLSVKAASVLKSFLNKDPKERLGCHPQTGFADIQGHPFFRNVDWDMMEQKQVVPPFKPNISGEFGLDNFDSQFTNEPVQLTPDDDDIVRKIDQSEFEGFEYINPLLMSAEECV

off-target kinases [3] = biological target: T2, off-target kinases (Homo sapiens, UniProt Q8NE63); conditions: HIPK4, ZLYTE, ATP Km app
T2 sequence (Q8NE63 1-616): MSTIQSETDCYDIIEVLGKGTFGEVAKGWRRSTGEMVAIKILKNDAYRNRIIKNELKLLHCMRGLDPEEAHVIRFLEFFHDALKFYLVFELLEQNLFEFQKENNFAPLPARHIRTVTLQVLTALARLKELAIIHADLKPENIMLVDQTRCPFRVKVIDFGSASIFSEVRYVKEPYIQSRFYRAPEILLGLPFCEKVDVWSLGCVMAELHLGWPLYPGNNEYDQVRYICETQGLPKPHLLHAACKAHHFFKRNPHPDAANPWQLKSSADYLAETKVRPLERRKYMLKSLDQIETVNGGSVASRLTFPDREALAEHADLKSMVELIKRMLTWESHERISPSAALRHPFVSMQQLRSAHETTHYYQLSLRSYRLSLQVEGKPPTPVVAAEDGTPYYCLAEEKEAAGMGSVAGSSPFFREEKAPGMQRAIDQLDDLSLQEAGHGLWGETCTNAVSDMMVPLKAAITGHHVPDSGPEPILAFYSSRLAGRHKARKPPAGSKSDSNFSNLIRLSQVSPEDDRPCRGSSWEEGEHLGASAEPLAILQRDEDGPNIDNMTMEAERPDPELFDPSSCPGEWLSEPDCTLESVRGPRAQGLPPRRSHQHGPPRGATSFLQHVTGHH

off-target kinases [4] = biological target: off-target kinases (Homo sapiens, UniProt Q9H1R3); conditions: MYLK2 (skMLCK), ATP Km app, ZLYTE
off-target kinases [5] = biological target: off-target kinases (Homo sapiens, UniProt P08631); conditions: HCK, ZLYTE, ATP Km app
off-target kinases (Homo sapiens, UniProt P08631), sequence (P08631 whole entry): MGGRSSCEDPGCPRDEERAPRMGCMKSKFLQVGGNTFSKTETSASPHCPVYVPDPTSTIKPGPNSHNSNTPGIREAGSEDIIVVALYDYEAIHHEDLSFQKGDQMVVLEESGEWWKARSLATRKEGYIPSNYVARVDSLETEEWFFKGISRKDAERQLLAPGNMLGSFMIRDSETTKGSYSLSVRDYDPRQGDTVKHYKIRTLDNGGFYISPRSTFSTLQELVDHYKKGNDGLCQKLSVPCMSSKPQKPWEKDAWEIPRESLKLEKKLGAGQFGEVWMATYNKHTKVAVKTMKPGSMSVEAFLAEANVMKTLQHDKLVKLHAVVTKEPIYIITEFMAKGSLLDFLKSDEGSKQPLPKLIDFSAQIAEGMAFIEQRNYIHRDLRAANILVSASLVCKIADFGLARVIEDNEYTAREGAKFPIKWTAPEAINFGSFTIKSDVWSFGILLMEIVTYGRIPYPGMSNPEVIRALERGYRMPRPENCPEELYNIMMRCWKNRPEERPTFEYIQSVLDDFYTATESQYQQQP

off-target kinases (Homo sapiens, UniProt P06493), sequence (P06493 whole entry): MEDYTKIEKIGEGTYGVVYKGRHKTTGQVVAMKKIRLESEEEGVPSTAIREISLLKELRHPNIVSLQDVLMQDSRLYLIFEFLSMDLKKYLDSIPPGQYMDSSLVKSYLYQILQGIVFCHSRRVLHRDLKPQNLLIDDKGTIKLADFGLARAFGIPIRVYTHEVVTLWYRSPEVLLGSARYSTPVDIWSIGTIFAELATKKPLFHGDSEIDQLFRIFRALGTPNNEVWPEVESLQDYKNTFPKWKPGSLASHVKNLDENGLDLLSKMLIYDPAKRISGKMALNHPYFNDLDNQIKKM
off-target kinases (Homo sapiens, UniProt Q9H1R3), sequence (Q9H1R3 whole entry): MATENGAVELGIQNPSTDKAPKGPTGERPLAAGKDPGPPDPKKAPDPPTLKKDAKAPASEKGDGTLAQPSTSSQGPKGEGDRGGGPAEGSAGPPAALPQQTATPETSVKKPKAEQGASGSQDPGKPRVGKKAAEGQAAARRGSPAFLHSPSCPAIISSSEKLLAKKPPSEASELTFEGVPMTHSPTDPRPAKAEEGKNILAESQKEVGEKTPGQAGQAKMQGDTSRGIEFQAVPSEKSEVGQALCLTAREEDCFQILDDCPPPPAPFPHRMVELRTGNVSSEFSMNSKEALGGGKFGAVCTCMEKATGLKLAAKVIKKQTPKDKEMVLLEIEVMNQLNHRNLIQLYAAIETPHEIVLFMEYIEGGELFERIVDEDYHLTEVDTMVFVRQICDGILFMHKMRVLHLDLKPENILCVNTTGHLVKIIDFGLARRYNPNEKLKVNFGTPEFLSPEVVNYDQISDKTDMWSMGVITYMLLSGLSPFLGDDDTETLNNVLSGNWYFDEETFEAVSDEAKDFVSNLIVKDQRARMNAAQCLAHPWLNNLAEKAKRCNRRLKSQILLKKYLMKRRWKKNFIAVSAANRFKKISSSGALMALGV

N#Cc1cc(-c2ncnc(Nc3ccc(N4CCN(C5COC5)CC4)cc3)n2)ccc1OC1CCOCC1 [Compound 1, 5-(4-((4-(4-(oxetan-3-yl)piperazin-1-yl)phenyl)amino)-1,3,5-triazin-2-yl)-2-((tetrahydro-2H-pyran-4-yl)oxy)benzonitrile]
inhibition (off-target kinases [1]; CDK1/cyclin A2, LanthaScreen Binding, read-out: % Inhibition 1): 2% | inhibition (off-target kinases [1]; CDK1/cyclin A2, LanthaScreen Binding, read-out: % Inhibition 2): 12% | inhibition (off-target kinases [1]; CDK1/cyclin A2, LanthaScreen Binding, read-out: % Inhibition Avg): 7% | inhibition (off-target kinases [1]; CDK1/cyclin B, ZLYTE, ATP Km app, read-out: % Inhibition 1): 16% | inhibition (off-target kinases [1]; CDK1/cyclin B, ZLYTE, ATP Km app, read-out: % Inhibition 2): 15% | inhibition (off-target kinases [1]; CDK1/cyclin B, ZLYTE, ATP Km app, read-out: % Inhibition Avg): 16% | inhibition (off-target kinases [2]; read-out: % Inhibition 1): 5% | inhibition (off-target kinases [2]; read-out: % Inhibition 2): 7% | inhibition (off-target kinases [2]; read-out: % Inhibition Avg): 6% | inhibition (off-target kinases [3]; read-out: % Inhibition 1): 18% | inhibition (off-target kinases [3]; read-out: % Inhibition 2): 14% | inhibition (off-target kinases [3]; read-out: % Inhibition Avg): 16% | inhibition (off-target kinases [4]; read-out: % Inhibition 1): 65% | inhibition (off-target kinases [4]; read-out: % Inhibition 2): 60% | inhibition (off-target kinases [4]; read-out: % Inhibition Avg): 63% | inhibition (off-target kinases [5]; read-out: % Inhibition 1): 26% | inhibition (off-target kinases [5]; read-out: % Inhibition 2): 28% | inhibition (off-target kinases [5]; read-out: % Inhibition Avg): 27%

Source: US11572590B2, “Methods for evaluating tumor cell spheroids using 3D microfluidic cell culture device” (Dana-Farber Cancer Institute, Inc., priority 2017, dated 2023)
